Experimental data taken from US11185593B2, “Alkylating agent for alkylating target with driver oncogene mutation” (Chiba Prefecture, priority 2013, dated 2021).

Key:
LS180 cells = experiment: Confirmation of cell death (apoptosis) by fragmentation of DNA; type: cell-based, human; details: LS180, 50 nM, FIG. 10B
Experimental: Regarding the treatment of cells, the LS180 cells were cultured at a cell density of 1.0×10^5 cells/30 mm dish in a culture media of MEM (gibco)+10% FBS (gibco)+100 units/ml Penicillin+100 μg/ml Streptmycin (gibco). Thereafter, the cultured cells were treated with 50 nM KR12 or KR13 (dissolved in 0.125% DMSO) for 72 hours, and also, as a long-term experiment, the cells were treated with KR 12 or KR13 for […]. Thereafter, the cells of different groups were treated with a control MEM medium containing 10% FBS and 0.125% DMSO for 11 days. At the same time, as a control group, the LS180 cells were treated with 10% FBS and 0.125% DMSO for 14 days. Thereafter, the cells of the different groups were treated with trypsin, and were then recovered. The recovered cells were stirred in 50 μl of a PBS solution, and 3 μl of 1.5% Triton X (in water) and 3 μl of an RNase (1 mg/ml in water) were then added to the reaction solution. The mixed solution was treated at 37° C. for 30 minutes. Subsequently, 3 μl of proteinase K (1 mg/ml) was added to the reaction solution, and the obtained mixture was then treated at 37° C. for 30 minutes. Subsequently, 12 μl of 6× loading buffer was further added to the reaction solution, and the obtained mixture was treated at 65° C. for 10 minutes. Immediately after the treatment, 20 μl of the reaction solution was electrophoresed on 2% agarose gel in TBE at 100 V, and the gel was then stained with ethidium.

[1] = test system: γH2AX, p53, PARP in LS180 cells; experiment: Western analysis of markers of DNA damage and cell death (apoptosis); type: cell-based, human; details: LS180, 50 nM, 14 days, FIG. 10C
Experimental: LS180 cells, which had been subjected to a long-term treatment experiment and had been treated with 50 nM KR12 or KR13 (dissolved in 0.125% DMSO) for 14 days, were dissolved in a 1×SDS-sample buffer. The obtained solution was treated at 100° C. for 5 minutes. The protein amount was estimated using Bradford reagent (Bio-Rad, CA), and was then electrophoresed by 10% SDS-PAGE. After that, the protein was transferred onto polyvinylidene difluoride membranes (Millipore, MA), and using 5% dry milk in Tris-buffered saline (TBS) plus 0.1% Tween 20 as a blocking agent, anti-γH2AX (2F3, BioLegend, CA), anti-p53 (DO-1, Santa Cruz Biotechnology, CA), anti-PARP (Cell Signaling Technologies, MA), or anti-actin antibody (20-33, Sigma, MO) was added to lanes, and the protein was further treated with HRP-conjugated anti-mouse IgG or anti-rabbit IgG (Cell Signaling Technologies, MA). Before the treatment with a secondary antibody, the primary antibody was washed, as appropriate. Thereafter, the protein was washed with TBS plus 0.1% Tween 20, and it was then identified by […] chemiluminescence (ECL) (Amersham Biosciences, NJ).

KRAS gene = experiment: Semi-quantitative analysis of gene expression by RT-PCR; type: cell-based, human; details: LS180 (KRAS gene codon 12 mutation), 50 nM, 48 hours, FIG. 11B
Experimental: HT29 and LS180 were each cultured in a 12-well plate. On the following day, the cells were treated with 50 nM KR12 or KR13, and were then cultured for 48 hours. Thereafter, the cultured cells were harvested, and RNA was then extracted. For the extraction, RT-PCR was carried out using RNeasy mini kit (Qiagen, CA). Subsequently, using the extracted RNA as a template, cDNA for reverse transcription was prepared by employing Super Script VILO cDNA Synthesis Kit (Invitrogen, CA). Using the prepared cDNA as a template, PCR was carried out. After a reaction had been carried out at 94° C. for 5 minutes, a reaction cycle of 94° C.-30 seconds, 55° C.-30 seconds, and 72° C.-30 seconds was repeated 20 times. Finally, an elongation reaction was carried out at 72° C. for 7 minutes. The PCR product was subjected to electrophoresis on 2% agarose gel. The amount of the PCR product was calculated using a photograph of a band stained with ethidium bromide.
The below-mentioned primer set was used in PCR.
A forward primer (sense) and a reverse primer (antisense), which amplify both mutant and wild-type KRAS genes, and a forward primer (sense) and a reverse primer (antisense) for an RPS18 (ribosomal protein S18) gene used as an internal standard are shown below.

HT29 (KRAS-WT) = experiment: Suppression of tumor growth in nude mice, HT29 transplanted; type: in vivo; details: nude mice with HT29 cells; 3.4 mmol KR12 via the caudal vein; FIG. 14A
Experimental: The below-mentioned 3 types of PBS solutions containing each type of cells were subcutaneously transplanted into the femurs of nude mice (i.e., HT29 into 7 mice, LS180 into 7 mice, and SW480 into 6 mice), and thereafter, at a time point in which a tumor adhered to the living body of each mouse and the tumor volume became approximately 100 mm^3, a drug was prepared with a composition of 3.4 mmol KR12 (1.36 mM KR12 dissolved in 2.5 μL of DMSO and 197.5 μL of PBS), or of a DMSO/PBS control (2.5 μL of DMSO and 197.5 μL of PBS). The prepared drug was subjected to sonication for 10 minutes, and 200 μL of the drug was administered to each mouse via the caudal vein thereof. The body weight and the tumor size were measured once three days, and the size of the tumor was measured by the method of 0.52×L×W×D(1/6×π×L×W×D).
HT29 (KRAS-WT): (transplanted in an amount of 2×10^6 cells/100 μl PBS into the subcutis of each mouse; a wild-type KRAS codon 12 cell line having no codon 12 mutations)

Structure (SMILES): CC(=O)Nc1cn(C)c(C(=O)Nc2cc(C(=O)NCCC(=O)Nc3cn(C)c(C(=O)Nc4cn(C)c(C(=O)Nc5cc(C(=O)Nc6cn(C)c(C(=O)NCCCC(=O)Nc7cc(C(=O)Nc8cn(C)c(C(=O)NCCC(=O)Nc9cc(C(=O)Nc%10cc(C(=O)Nc%11ccc%12[nH]c(C(=O)N%13CC(CCl)c%14c%13cc(O)c%13ccccc%14%13)cc%12c%11)n(C)c%10)n(C)c9)n8)n(C)c7)n6)n(C)c5)n4)n3)n(C)c2)n1 (stereo not shown) [KR12]
- DNA fragmentation (LS180 cells; 72-hour-treated groups): DNA fragmentation was not observed
- DNA fragmentation (LS180 cells; long-term treatment): DNA fragmentation induced by cell death was observed
- DNA damage marker γH2AX [1]: induced
- cleavage of the PARP protein [1]: the cleavage of the PARP protein was observed
- induction of p53 [1]: induction of p53 was also observed
- expression of the KRAS gene (KRAS gene): significantly suppressed
- tumor growth (HT29 (KRAS-WT)): could not be suppressed

Structure (SMILES): CC(=O)Nc1cn(C)c(C(=O)Nc2cn(C)c(C(=O)Nc3cc(C(=O)Nc4cn(C)c(C(=O)NCCC(=O)Nc5cc(C(=O)Nc6cn(C)c(C(=O)NCCCC(=O)Nc7cc(C(=O)Nc8cn(C)c(C(=O)Nc9cc(C(=O)NCCC(=O)Nc%10cc(C(=O)Nc%11ccc%12[nH]c(C(=O)N%13CC(CCl)c%14c%13cc(O)c%13ccccc%14%13)cc%12c%11)n(C)c%10)n(C)c9)n8)n(C)c7)n6)n(C)c5)n4)n(C)c3)n2)n1 (stereo not shown) [KR13]
- DNA fragmentation (LS180 cells; 72-hour-treated groups): DNA fragmentation was not observed
- DNA fragmentation (LS180 cells; long-term treatment): DNA fragmentation was not observed
- induction of DNA damage and cell death [1]: significant induction of DNA damage and cell death was not observed
